Tests used:
S. aureus strains = assay: E-Test MIC of oxacillin; assay type: cell-based; conditions: Staphylococcus aureus
[1] = system: low-level resistant strains (MRSA); conditions: cited from earlier work

In the case of `Cc1onc(-c2ccccc2)c1C(=O)N[C@@H]1C(=O)N2[C@@H]1SC(C)(C)[C@@H]2C(=O)O` [OX, oxacillin], the MIC (S. aureus strains; strain 31 (mecA −, PBP2 −)) is reported as 0.25 µg/mL, the MIC (S. aureus strains; strain 34 (mecA +, PBP2 +)) is reported as 16 µg/mL and the MIC (S. aureus strains; strain 2325 (mecA −, PBP2 −)) is reported as 0.19 µg/mL. The MIC (S. aureus strains; strain 3421 (mecA +)) was over 4 µg/mL, the MIC (S. aureus strains; strain 3424 (mecA −, PBP2 −)) was 1.5 µg/mL and the MIC (S. aureus strains; strain 3425 (mecA −, PBP2 −)) was 0.38 µg/mL. It also gave an MIC (S. aureus strains; strain 5594 (mecA +, PBP2 +)) of 0.38 µg/mL, an MIC (S. aureus strains; strain 5595 (mecA +, PBP2 +)) of 0.5 µg/mL and an MIC (S. aureus strains; strain 5596 (mecA +, PBP2 +)) of 0.5 µg/mL. For the same compound, the MIC (S. aureus strains; strain 5597 (mecA +, PBP2 +)) was 32 µg/mL, the MIC (S. aureus strains; strain 5598 (mecA +, PBP2 +)) was 32 µg/mL and the MIC (S. aureus strains; strain 5599 (mecA +, PBP2 +)) was 16 µg/mL. It also gave an MIC (S. aureus strains; strain T775 (mecA +, PBP2 +)) of 8 µg/mL, an MIC (S. aureus strains; strain T2109 (mecA +, PBP2 +)) of 32 µg/mL and an MIC (S. aureus strains; strain T2110 (mecA +, PBP2 +)) of 8 µg/mL. The MIC (S. aureus strains; strain T2130 (mecA +, PBP2 +)) was 32 µg/mL, the MIC (S. aureus strains; strain T4031 (mecA +, PBP2 +)) was 6 µg/mL and the MIC (S. aureus strains; strain T4033 (mecA +, PBP2 +)) was 1.5 µg/mL. For the same compound, the MIC (S. aureus strains; strain T4035 (mecA +, PBP2 +)) was 8 µg/mL and the “oxacillin MIC of low-level resistant strains, at or just above the susceptible breakpoint” value [1] was 4 to 8 µg/mL.

Source: US20040235012A1, “Method of detecting antibiotic resistance in microorganisms” (priority 2003, published 2004)
